Source: ChEMBL document CHEMBL3137667, “[Drug-induced liver injury; fourteenth updated edition of the bibliographic database of liver injuries and related drugs]” (Gastroenterol Clin Biol, 2004)

Key:
[1] = Highest frequency of moderate liver toxicity observed during clinical trials, expressed as a percentage. [column '% BIOL' in source]; conditions: human
[2] = Highest frequency of acute liver toxicity observed during clinical trials, expressed as a percentage. [column '% AIGUE' in source]; conditions: human
[3] = Times to onset, minimal and maximal, observed in the indexed observations. [column 'DELAI' in source]; conditions: human
[4] = Proposed mechanism(s) of liver damage. [column 'MEC' in source]; conditions: human
[5] = human, serum
[6] = human, serum; remark: listed apart in the source
[7] = human
[8] = human; remark: listed apart in the source
[9] = human; remark: listed apart in the source
[10] = human, serum, 4383 h
[11] = human; remark: listed apart in the source
[12] = human; remark: listed apart in the source
[13] = human; remark: listed apart in the source
[14] = human; remark: listed apart in the source
[15] = human; remark: listed apart in the source
[16] = human; remark: listed apart in the source
[17] = human; remark: listed apart in the source
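For Hepatotoxicity (association with vascular disease) in this document: count of indexed literature references reporting vascular liver injury in humans, e.g. peliosis hepatitis, hepatic veno-occlusive disease or Budd-Chiari syndrome.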
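For Hepatotoxicity (benign tumour) in this document: value is a count of indexed literature references citing a benign tumour confirmed by histopathology.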
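For Hepatotoxicity (choleostasis) in this document: human cholestatic liver injury, shown by histopathology or by peak ALT or AST elevation over alkaline phosphatase ratio below 2, value counts indexed literature reports.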
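For Hepatotoxicity (chronic liver disease) in this document: chronic liver injury confirmed by histopathology or persistently raised serum aminotransferase activity beyond 6 months, value given as the count of indexed literature references.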
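For Hepatotoxicity (cirrhosis) in this document: value is a count of indexed literature references reporting cirrhosis confirmed by histopathology.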
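For Hepatotoxicity (cytolytic) in this document: human cytolytic liver injury, shown by histopathology or by a ratio above 5 of peak ALT or AST elevation to alkaline phosphatase elevation, value counts indexed references.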
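For Hepatotoxicity (granulomatous hepatitis) in this document: value is a count of indexed literature references reporting granulomatous liver disease confirmed by histopathology.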
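For Hepatotoxicity (malignant tumour) in this document: malignant tumour confirmed by histopathology, value gives the count of indexed literature references reporting it.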
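For Hepatotoxicity (severe hepatitis) in this document: human clinical data: severe hepatitis, meaning potentially life-threatening liver failure or clinically observed cases, the value counts how many indexed literature references report it.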
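For Hepatotoxicity (steatosis) in this document: steatosis confirmed by histopathology, value is the count of indexed references.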

Molecule | Hepatotoxicity (time to onset) [3] | Hepatotoxicity (moderate) [5] | Hepatotoxicity (acute) [6] | Hepatotoxicity (cytolytic) [7] | Hepatotoxicity (choleostasis) [8] | Hepatotoxicity (chronic liver disease) [10] | Hepatotoxicity (cirrhosis) [11] | Hepatotoxicity (granulomatous hepatitis) [12] | Hepatotoxicity (association with vascular disease) [13] | Hepatotoxicity (steatosis) [14] | Hepatotoxicity (malignant tumour) [15] | Hepatotoxicity (benign tumour) [16] | Hepatotoxicity (animal toxicity known) [17] | Hepatotoxicity (moderate) [1] | Hepatotoxicity (acute) [2] | Hepatotoxicity (severe hepatitis) [9] | other results
Cc1c(N(C)C)c(=O)n(-c2ccccc2)n1C [AMINOPYRINE] | 3 months | 2 | 6 | 3 | 1 | 0 | 0 | 0 | 0 | 1 | 0 | 0 | yes | – | – | – | Hepatotoxicity (moderate) ([1]; Liver): 0%; Hepatotoxicity (acute) ([2]; Liver): 0%; Hepatotoxicity (mechanism) [4]: Dose-dependant; Hepatotoxicity (severe hepatitis) ([9]; Liver): 2
COc1cc2c(c(OC)c1OC)-c1ccc(OC)c(=O)cc1[C@@H](NC(C)=O)CC2 [COLCHICINE] | 2 hours - 2 days | 2 | 7 | 3 | 0 | 0 | 0 | 0 | 0 | 0 | 0 | 0 | yes | 28.6% | 0% | 0 | Hepatotoxicity (mechanism) [4]: Overdose
OCC(Br)(Br)Br [TRIBROMOETHANOL] | 1 day - 4 days | 1 | 9 | 8 | 0 | 0 | 0 | 0 | 0 | 9 | 0 | 0 | yes | 0% | 0.1% | 15 | –
COc1ccc2nc(NC(=O)Nc3ccccc3)sc2c1 [FRENTIZOLE] | 1 week - 1 month | 4 | 2 | 2 | 0 | 1 | 0 | 0 | 0 | 0 | 0 | 0 | yes | 70% | 0% | 1 | –
O=c1[nH]c(=O)n([C@@H]2O[C@H](CO)[C@@H](O)[C@@H]2F)cc1I [FIALURIDINE] | 9.5 weeks - 4 months | 0 | 1 | 0 | 0 | 0 | 0 | 0 | 0 | 1 | 0 | 0 | yes | 0% | 33.3% | 3 | –
COc1cc(NS(C)(=O)=O)ccc1Nc1c2ccccc2nc2ccccc12 [AMSACRINE] | 5 days - 1 month | 10 | 2 | 2 | 0 | 0 | 0 | 0 | 0 | 1 | 0 | 0 | yes | 41% | 0% | 4 | –
N[C@@H](Cc1cc(I)c(Oc2cc(I)c(O)c(I)c2)c(I)c1)C(=O)O [LEVOTHYROXINE] | 12 days - 4 years | 1 | 1 | 0 | 0 | 0 | 1 | 0 | 0 | 0 | 0 | 0 | yes | 0% | 0% | 0 | –
N=C(N)c1ccc(/C=C/c2ccc(C(=N)N)cc2)cc1 [STILBAMIDINE] | 1 month - 3 months | 0 | 1 | 1 | 0 | 0 | 0 | 0 | 0 | 0 | 0 | 0 | yes | 0% | 0% | 0 | –
CCN(CC)CCNc1ccc(CO)c2sc3ccccc3c(=O)c12 [HYCANTHONE] | 1 day - 18 days | 1 | 7 | 3 | 1 | 1 | 0 | 0 | 0 | 1 | 0 | 0 | yes | 0% | 0% | 16 | –
COc1ccc(NS(=O)(=O)c2ccc(N)cc2)nn1 [SULFAMETHOXYPYRIDAZINE] | 1 month - 2 months | 0 | 4 | 4 | 2 | 0 | 0 | 0 | 0 | 0 | 0 | 0 | yes | 0% | 0% | 0 | –
O=C(O)/C=C/C(=O)O [FUMARIC ACID] | 2 months | 6 | 0 | 0 | 0 | 0 | 0 | 0 | 0 | 0 | 0 | 0 | yes | 59% | 0% | 0 | –
CNCCC=C1c2ccccc2CCc2ccccc21 [NORTRIPTYLINE] | 2 months - 3 months | 1 | 2 | – | – | 0 | 0 | – | 0 | 0 | 0 | 0 | yes | – | – | – | Hepatotoxicity (moderate) ([1]; Liver): 0%; Hepatotoxicity (acute) ([2]; Liver): 0%; Hepatotoxicity (cytolytic) ([7]; Liver): 2; Hepatotoxicity (choleostasis) ([8]; Liver): 0; Hepatotoxicity (severe hepatitis) ([9]; Liver): 2; Hepatotoxicity (granulomatous hepatitis) ([12]; Liver): 0
ASPARAGINASE | – | 27 | 2 | 1 | 0 | 0 | 0 | 0 | 0 | 9 | 0 | 0 | yes | 63% | 2.9% | 2 | Hepatotoxicity (mechanism) [4]: Dose-dependant
[N-]=[N+]=O [NITROUS OXIDE] | 9 days | 1 | 1 | 1 | 0 | 0 | 0 | 0 | 0 | 0 | 0 | 0 | yes | 0% | 0% | 0 | –
